Reference: the NIST ThermoML archive (doi:10.1016/j.jct.2009.08.002)
Numbers after ± are expanded uncertainties.

How the values were obtained:
[1] = molar heat capacity at constant pressure; xn = mol fraction of the nth substance listed; details: Liquid, Large sample (1 g) DSC, x2 = 0
[2] = molar heat capacity at constant pressure; details: 298.15 K; 101.33 kPa; Liquid; Large sample (1 g) DSC

SMILES | molar heat capacity at constant pressure ([1]; 283.15 K) | molar heat capacity at constant pressure ([1]; 288.15 K) | molar heat capacity at constant pressure ([1]; 293.15 K) | molar heat capacity at constant pressure ([1]; 298.15 K) | molar heat capacity at constant pressure ([1]; 303.15 K) | molar heat capacity at constant pressure ([1]; 308.15 K) | molar heat capacity at constant pressure ([1]; 313.15 K) | molar heat capacity at constant pressure ([1]; 318.15 K) | molar heat capacity at constant pressure ([1]; 323.15 K) | molar heat capacity at constant pressure [2]
CC#N [acetonitrile] + CCCCCCn1cc[n+](C)c1.F[B-](F)(F)F | 90.03 ± 1.4 J/K/mol | 90.3 ± 1.4 J/K/mol | 90.6 ± 1.4 J/K/mol | 90.93 ± 1.4 J/K/mol | 91.28 ± 1.4 J/K/mol | 91.66 ± 1.4 J/K/mol | 92.07 ± 1.4 J/K/mol | 92.5 ± 1.4 J/K/mol | 92.96 ± 1.4 J/K/mol | 
CCCCCCCC[n+]1ccn(C)c1.F[B-](F)(F)F [1-methyl-3-octylimidazolium tetrafluoroborate] |  |  |  |  |  |  |  |  |  | 498.3 ± 11 J/K/mol
CC#N [acetonitrile] |  |  |  |  |  |  |  |  |  | 90.93 ± 1.4 J/K/mol
CCCCCCn1cc[n+](C)c1.F[B-](F)(F)F [1-hexyl-3-methylimidazolium tetrafluoroborate] |  |  |  |  |  |  |  |  |  | 432 ± 8 J/K/mol
CC#N [acetonitrile] + CCCCCCCC[n+]1ccn(C)c1.F[B-](F)(F)F | 90.03 ± 1.4 J/K/mol | 90.3 ± 1.4 J/K/mol | 90.6 ± 1.4 J/K/mol | 90.93 ± 1.4 J/K/mol | 91.28 ± 1.4 J/K/mol | 91.66 ± 1.4 J/K/mol | 92.07 ± 1.4 J/K/mol | 92.5 ± 1.4 J/K/mol | 92.96 ± 1.4 J/K/mol | 
